In patent US9944602B2, “Piperidinone herbicides” (E. I. DU PONT DE NEMOURS AND COMPANY, priority 2014, dated 2018):

Experiments:
Type in all cases: in vivo
[1] = test system: barnyardgrass (Echinochloa crus-galli); assay: Test A preemergence barnyardgrass; details: Echinochloa crus-galli, pre-emergence, 240 h, 0 to 100 scale, 0 no effect, 100 complete control, read-out: Barnyardgrass plant response rating
Method in brief: (§1)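 Compounds in non-phytotoxic solvent with surfactant, applied preemergence as directed soil spray on seeds in loam–sand blend, or postemergence to plants 2–10 cm tall at one- to two-leaf stage. Greenhouse ~10 d, then visual injury versus untreated controls, 0 (no effect) to 100 (complete control).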

kochia (Kochia scoparia) [2] = assay: Test A preemergence kochia; details: Bassia scoparia, pre-emergence, 240 h, 0 to 100 scale, 0 no effect, 100 complete control, read-out: Kochia plant response rating
Method in brief: as §1

[3] = test system: ragweed (common ragweed, Ambrosia elatior); assay: Test A preemergence ragweed; details: Ambrosia artemisiifolia, pre-emergence, 240 h, 0 to 100 scale, 0 no effect, 100 complete control, read-out: Ragweed plant response rating
Method in brief: as §1

[4] = test system: ryegrass, Italian (Italian ryegrass, Lolium multiflorum); assay: Test A preemergence ryegrass, Italian; details: Lolium multiflorum, pre-emergence, 240 h, 0 to 100 scale, 0 no effect, 100 complete control, read-out: Ryegrass, Italian plant response rating
Method in brief: as §1

[5] = test system: foxtail, giant (giant foxtail, Setaria faberii); assay: Test A preemergence foxtail, giant; details: Setaria faberi, pre-emergence, 240 h, 0 to 100 scale, 0 no effect, 100 complete control, read-out: Foxtail, Giant plant response rating
Method in brief: as §1

[6] = test system: pigweed (Amaranthus retroflexus); assay: Test A preemergence pigweed; details: Amaranthus retroflexus, pre-emergence, 240 h, 0 to 100 scale, 0 no effect, 100 complete control, read-out: Pigweed plant response rating
Method in brief: as §1

[7] = test system: barnyardgrass (Echinochloa crus-galli); assay: Test A postemergence barnyardgrass; details: Echinochloa crus-galli, post-emergence, 240 h, 0 to 100 scale, 0 is no effect, 100 is complete control, read-out: Plant response rating, Barnyardgrass
Method in brief: as §1

kochia (Kochia scoparia) [8] = assay: Test A postemergence kochia; details: Bassia scoparia, post-emergence, 240 h, 0 to 100 scale, 0 is no effect, 100 is complete control, read-out: Plant response rating, Kochia
Method in brief: as §1

[9] = test system: ragweed (common ragweed, Ambrosia elatior); assay: Test A postemergence ragweed; details: Ambrosia artemisiifolia, post-emergence, 240 h, 0 to 100 scale, 0 is no effect, 100 is complete control, read-out: Plant response rating, Ragweed
Method in brief: as §1

[10] = test system: ryegrass, Italian (Italian ryegrass, Lolium multiflorum); assay: Test A postemergence ryegrass, Italian; details: Lolium multiflorum, post-emergence, 240 h, 0 to 100 scale, 0 is no effect, 100 is complete control, read-out: Plant response rating, Ryegrass, Italian
Method in brief: as §1

[11] = test system: foxtail, giant (giant foxtail, Setaria faberii); assay: Test A postemergence foxtail, giant; details: Setaria faberi, post-emergence, 240 h, 0 to 100 scale, 0 is no effect, 100 is complete control, read-out: Plant response rating, Foxtail, Giant
Method in brief: as §1

[12] = test system: pigweed (Amaranthus retroflexus); assay: Test A postemergence pigweed; details: Amaranthus retroflexus, post-emergence, 240 h, 0 to 100 scale, 0 is no effect, 100 is complete control, read-out: Plant response rating, Pigweed
Method in brief: as §1

[13] = test system: wheat (Triticum aestivum); assay: Test A postemergence wheat; details: Triticum aestivum, post-emergence, 240 h, 0 to 100 scale, 0 is no effect, 100 is complete control, read-out: Plant response rating, Wheat
Method in brief: as §1

corn (Zea mays) = assay: Test A postemergence corn; details: Zea mays, post-emergence, 240 h, 0 to 100 scale, 0 is no effect, 100 is complete control
Method in brief: as §1

[14] = test system: blackgrass (Alopecurus myosuroides); assay: Test A postemergence blackgrass; details: Alopecurus myosuroides, post-emergence, 240 h, 0 to 100 scale, 0 is no effect, 100 is complete control, read-out: Plant response rating, Blackgrass
Method in brief: as §1

[15] = test system: galium (catchweed bedstraw, Galium aparine); assay: Test A postemergence galium; details: Galium, post-emergence, 240 h, 0 to 100 scale, 0 is no effect, 100 is complete control, read-out: Plant response rating, Galium
Method in brief: as §1

rice (Oryza sativa) = assay: Test B flooded paddy test rice; details: Oryza sativa, Table B, Flood, 250 g ai/ha, scale 0 to 100, read-out: Plant response rating
Method in brief: (§2)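 Plants at 2-leaf stage in pots flooded 3 cm above soil; compounds applied directly into paddy water, depth kept throughout.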

[16] = test system: sedge, umbrella (small-flower umbrella sedge, Cyperus difformis); assay: Test B flooded paddy test sedge, umbrella; details: Cyperus difformis, Table B, Flood, 250 g ai/ha, scale 0 to 100, read-out: Plant response rating
Method in brief: as §2

[17] = test system: ducksalad (Heteranthera limosa); assay: Test B flooded paddy test ducksalad; details: Heteranthera limosa, Table B, Flood, 250 g ai/ha, scale 0 to 100, read-out: Plant response rating
Method in brief: as §2

[18] = test system: barnyardgrass (Echinochloa crus-galli); assay: Test B flooded paddy test barnyardgrass; details: Echinochloa crus-galli, Table B, Flood, 250 g ai/ha, scale 0 to 100, read-out: Plant response rating
Method in brief: as §2

Structure (SMILES): CN1CC[C@H](c2ccc(F)cc2)[C@@H](C(=O)Nc2cccc(F)c2F)C1=O [Compound 52, (3S,4S)—N-(2,3-difluorophenyl)-4-(4-fluorophenyl)-1-methyl-2-oxo-3-piperidinecarboxamide]
- pest or weed control at 125 g/ha ([1]; 125 g ai/ha): 90%
- pest or weed control at 500 g/ha ([1]; 500 g ai/ha): 90%
- pest or weed control at 125 g/ha (kochia (Kochia scoparia) [2]; 125 g ai/ha): 0%
- pest or weed control at 500 g/ha (kochia (Kochia scoparia) [2]; 500 g ai/ha): 20%
- pest or weed control at 125 g/ha ([3]; 125 g ai/ha): 20%
- pest or weed control at 500 g/ha ([3]; 500 g ai/ha): 30%
- pest or weed control at 125 g/ha ([4]; 125 g ai/ha): 20%
- pest or weed control at 500 g/ha ([4]; 500 g ai/ha): 30%
- pest or weed control at 125 g/ha ([5]; 125 g ai/ha): 90%
- pest or weed control at 500 g/ha ([5]; 500 g ai/ha): 90%
- pest or weed control at 125 g/ha ([6]; 125 g ai/ha): 30%
- pest or weed control at 500 g/ha ([6]; 500 g ai/ha): 80%
- pest or weed control at 125 g/ha ([7]; 125 g ai/ha): 70%
- pest or weed control at 500 g/ha ([7]; 500 g ai/ha): 90%
- pest or weed control at 125 g/ha (kochia (Kochia scoparia) [8]; 125 g ai/ha): 0%
- pest or weed control at 500 g/ha (kochia (Kochia scoparia) [8]; 500 g ai/ha): 20%
- pest or weed control at 125 g/ha ([9]; 125 g ai/ha): 0%
- pest or weed control at 500 g/ha ([9]; 500 g ai/ha): 0%
- pest or weed control at 125 g/ha ([10]; 125 g ai/ha): 0%
- pest or weed control at 500 g/ha ([10]; 500 g ai/ha): 20%
- pest or weed control at 125 g/ha ([11]; 125 g ai/ha): 80%
- pest or weed control at 500 g/ha ([11]; 500 g ai/ha): 80%
- pest or weed control at 125 g/ha ([12]; 125 g ai/ha): 0%
- pest or weed control at 500 g/ha ([12]; 500 g ai/ha): 0%
- plant injury at 125 g/ha ([13]; 125 g ai/ha): 0%
- plant injury at 500 g/ha ([13]; 500 g ai/ha): 20%
- Corn plant response rating (crop injury, 0 = no effect, 100 = complete kill) at 125 g/ha (corn (Zea mays); 125 g ai/ha): 0%
- Corn plant response rating (crop injury, 0 = no effect, 100 = complete kill) at 500 g/ha (corn (Zea mays); 500 g ai/ha): 10%
- pest or weed control at 125 g/ha ([14]; 125 g ai/ha): 0%
- pest or weed control at 500 g/ha ([14]; 500 g ai/ha): 0%
- pest or weed control at 125 g/ha ([15]; 125 g ai/ha): 0%
- pest or weed control at 500 g/ha ([15]; 500 g ai/ha): 50%
- plant injury at 250 g/ha (rice (Oryza sativa)): 0%
- pest or weed control at 250 g/ha [16]: 0%
- pest or weed control at 250 g/ha [17]: 100%
- pest or weed control at 250 g/ha [18]: 30%
